According to US20070208166A1, “Tao Kinase Modulators And Method Of Use” (Exelixis, Inc., priority 2003, published 2007):

Columns and labels:
Assay type in all cases: biochemical
[1] = biological target: T1, TAO (Homo sapiens, UniProt Q9UL54); experiment: TAO Luciferase-Coupled Chemiluminescent Kinase assay (LCCA); details: 2 μM ATP, 10 μM MBP, 12 nM TAO, 2 hours; read-out: TAO inhibition IC50
T1 sequence (Q9UL54 1-1235): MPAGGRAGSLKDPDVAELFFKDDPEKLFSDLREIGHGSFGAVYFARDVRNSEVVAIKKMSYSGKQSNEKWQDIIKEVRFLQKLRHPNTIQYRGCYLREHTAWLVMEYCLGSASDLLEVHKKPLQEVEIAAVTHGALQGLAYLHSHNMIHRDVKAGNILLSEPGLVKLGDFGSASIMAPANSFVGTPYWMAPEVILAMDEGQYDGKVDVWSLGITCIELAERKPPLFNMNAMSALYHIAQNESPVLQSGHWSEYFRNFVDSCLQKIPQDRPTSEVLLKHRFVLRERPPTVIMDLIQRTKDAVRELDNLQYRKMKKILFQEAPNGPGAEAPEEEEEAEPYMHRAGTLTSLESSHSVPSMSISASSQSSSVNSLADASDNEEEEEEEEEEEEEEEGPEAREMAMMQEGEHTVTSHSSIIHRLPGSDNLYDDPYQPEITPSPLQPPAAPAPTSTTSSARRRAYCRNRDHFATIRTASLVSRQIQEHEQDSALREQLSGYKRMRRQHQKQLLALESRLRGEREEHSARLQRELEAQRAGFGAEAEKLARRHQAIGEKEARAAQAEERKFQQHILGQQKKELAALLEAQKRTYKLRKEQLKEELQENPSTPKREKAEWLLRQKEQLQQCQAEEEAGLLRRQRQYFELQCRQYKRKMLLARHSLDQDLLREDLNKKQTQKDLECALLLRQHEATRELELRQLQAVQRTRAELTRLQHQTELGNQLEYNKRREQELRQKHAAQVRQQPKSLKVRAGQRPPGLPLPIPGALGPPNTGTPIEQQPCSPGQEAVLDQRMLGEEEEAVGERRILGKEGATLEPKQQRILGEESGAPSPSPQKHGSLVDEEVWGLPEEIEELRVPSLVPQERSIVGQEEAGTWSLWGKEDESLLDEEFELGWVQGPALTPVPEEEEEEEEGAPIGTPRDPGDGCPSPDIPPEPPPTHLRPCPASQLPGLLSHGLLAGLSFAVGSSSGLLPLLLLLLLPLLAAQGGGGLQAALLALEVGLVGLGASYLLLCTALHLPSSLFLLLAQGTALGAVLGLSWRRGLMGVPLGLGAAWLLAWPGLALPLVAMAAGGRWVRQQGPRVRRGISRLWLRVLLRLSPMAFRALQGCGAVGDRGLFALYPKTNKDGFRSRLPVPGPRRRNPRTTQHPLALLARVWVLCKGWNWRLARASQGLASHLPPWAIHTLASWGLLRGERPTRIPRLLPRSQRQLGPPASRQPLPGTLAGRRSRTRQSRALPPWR

[2] = biological target: T2, KIAA 1361 (baculovirus expressed human KIAA 1361 kinase domain 2-322) (Homo sapiens, UniProt Q7L7X3); experiment: KIAA 1361 Luciferase-Coupled Chemiluminescent Kinase assay (LCCA); details: 2 μM ATP, 10 μM MBP, 12 nM KIAA 1361, 2 hours; read-out: KIAA1361 inhibition IC50
T2 construct: human KIAA 1361 kinase domain 2-322; made in house
T2 sequence (Q7L7X3 2-322): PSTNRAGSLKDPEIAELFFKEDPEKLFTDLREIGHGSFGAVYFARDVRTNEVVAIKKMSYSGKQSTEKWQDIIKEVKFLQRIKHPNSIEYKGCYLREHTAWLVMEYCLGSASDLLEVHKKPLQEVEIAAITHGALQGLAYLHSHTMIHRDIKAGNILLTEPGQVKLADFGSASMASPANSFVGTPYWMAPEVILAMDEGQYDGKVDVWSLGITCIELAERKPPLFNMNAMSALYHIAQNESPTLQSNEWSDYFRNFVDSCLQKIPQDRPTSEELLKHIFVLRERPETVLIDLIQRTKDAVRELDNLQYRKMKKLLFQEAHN
In short: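 KIAA 1361 kinase domain 2-322 (baculovirus, 12 nM) with 2 μM ATP and 10 μM MBP in Tris pH 7.5, MgCl2, MnCl2; 2 h, ambient. Remaining ATP read by luciferase chemiluminescence; 10 concentrations, IC50 by four-parameter fit.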

[3] = biological target: T3, JIK (Homo sapiens, UniProt Q9H2K8); experiment: JIK Luciferase-Coupled Chemiluminescent Kinase assay (LCCA); details: 2 μM ATP, 10 μM MBP, 6 nM JIK, 2 hours; read-out: JIK inhibition IC50
T3 construct: 6 nM JIK (baculovirus expressed human KIAA 1361 kinase domain2-318); made in house
T3 sequence (Q9H2K8 2-318): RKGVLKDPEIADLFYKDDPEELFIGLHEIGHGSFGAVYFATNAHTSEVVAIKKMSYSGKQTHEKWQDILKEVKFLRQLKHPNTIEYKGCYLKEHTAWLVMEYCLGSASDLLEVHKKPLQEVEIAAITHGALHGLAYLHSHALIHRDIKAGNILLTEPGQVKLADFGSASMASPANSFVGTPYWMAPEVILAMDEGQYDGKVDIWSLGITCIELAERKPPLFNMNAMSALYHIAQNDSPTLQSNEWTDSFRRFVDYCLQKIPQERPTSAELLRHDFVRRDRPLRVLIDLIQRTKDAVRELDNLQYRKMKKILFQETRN
In short: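 Baculovirus-expressed human KIAA 1361 kinase domain 2-318 at 6 nM, with 10 μM MBP and 2 μM ATP in Tris pH 7.5 with Mg/Mn, ran 2 h at ambient temperature. Remaining ATP was read by luciferase chemiluminescence. IC50 comes from a 10-concentration four-parameter fit.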

## CC(C)c1ccc(NC(=O)N2CCC[C@H]2C(=O)NCc2ccc(Cl)c(Cl)c2)cc1 [Entry 24, (2S)-N˜2˜-[(3,4-dichlorophenyl)methyl]-N˜1˜-[4-(1-methylethyl)phenyl]pyrrolidine-1,2-dicarboxamide]
[1]
  IC50: 500 to 5000 nM
[2]
  IC50: 50 to 500 nM
[3]
  IC50: 50 to 500 nM

## COc1ccc(/C=C/C(=O)N[C@@H](COCc2ccccc2)C(=O)NC(c2ccccc2)c2ccccc2)cc1OC [Entry 30, N˜2˜-{(2E)-3-[3,4-bis(methyloxy)phenyl]prop-2-enoyl}-N-(diphenylmethyl)-O-(phenylmethyl)serinamide]
[1]
  IC50: > 5000 nM
[2]
  IC50: 500 to 5000 nM
[3]
  IC50: 50 to 500 nM

## O=C(COc1ccc(OCc2ccccc2)cc1)NCC(=O)NC1CCCc2ccccc21 (stereo not drawn) [Entry 2, N˜2˜-[({4-[(phenylmethyl)oxy]phenyl}oxy)acetyl]-N-(1,2,3,4-tetrahydronaphthalen-1-yl)glycinamide]
[1]
  IC50: 50 to 500 nM
[2]
  IC50: 50 to 500 nM
[3]
  IC50: < 50 nM

## COc1ccc2nc(NC(=O)CNC(=O)CCNC(=O)c3ccccc3)sc2c1 [Entry 85, N-(phenylcarbonyl)-beta-alanyl-N-[6-(methyloxy)-1,3-benzothiazol-2-yl]glycinamide]
[1]
  IC50: > 5000 nM
[2]
  IC50: > 5000 nM
[3]
  IC50: > 5000 nM

## O=C(CNC(=O)COc1ccc(Br)cc1)NCc1ccc(Cl)c(Cl)c1 [Entry 25, N˜2˜-{[(4-bromophenyl)oxy]acetyl}-N-[(3,4-dichlorophenyl)methyl]glycinamide]
[1]
  IC50: 500 to 5000 nM
[2]
  IC50: 50 to 500 nM
[3]
  IC50: 50 to 500 nM

## O=C(NC1CCCc2ccccc21)C(NC(=O)C(c1ccccc1)C1CCCC1)c1cccnc1 (stereo not drawn) [Entry 7, 2-cyclopentyl-N-[2-oxo-1-pyridin-3-yl-2-(1,2,3,4-tetrahydronaphthalen-1-ylamino)ethyl]-2-phenylacetamide]
[1]
  IC50: 50 to 500 nM
[2]
  IC50: 50 to 500 nM
[3]
  IC50: < 50 nM

## O=C(CC(NC(=O)c1ccccc1)c1ccccc1)NCC(=O)Nc1nc2ccccc2s1 (stereo not drawn) [Entry 90, N-(3-{[2-(1,3-benzothiazol-2-ylamino)-2-oxoethyl]amino}-3-oxo-1-phenylpropyl)benzamide]
[1]
  IC50: 50 to 500 nM
[2]
  IC50: 50 to 500 nM
[3]
  IC50: < 50 nM

## CCc1ccc(-c2ccc(C(=O)NCC(=O)N3CCN(c4ccccc4)CC3)cc2)cc1 [Entry 68, 4′-ethyl-N-[2-oxo-2-(4-phenylpiperazin-1-yl)ethyl]biphenyl-4-carboxamide]
[1]
  IC50: > 5000 nM
[2]
  IC50: > 5000 nM
[3]
  IC50: > 5000 nM

## O=C(CNC(=O)c1ccc(Oc2ccccc2)cc1)NC1CCCc2ccccc21 (stereo not drawn) [Entry 49, N-[2-oxo-2-(1,2,3,4-tetrahydronaphthalen-1-ylamino)ethyl]-4-(phenyloxy)benzamide]
[1]
  IC50: 50 to 500 nM
[2]
  IC50: 50 to 500 nM
[3]
  IC50: 50 to 500 nM

## CCc1ccc(-c2ccc(C(=O)NCC(=O)NCCc3ccccc3)cc2)cc1 [Entry 75, 4′-ethyl-N-{2-oxo-2-[(2-phenylethyl)amino]ethyl}biphenyl-4-carboxamide]
[1]
  IC50: > 5000 nM
[2]
  IC50: > 5000 nM
[3]
  IC50: > 5000 nM

## CCCCCCCOc1ccc(C(=O)NCC(=O)NC2CCCc3ccccc32)cc1 (stereo not drawn) [Entry 8, 4-(heptyloxy)-N-[2-oxo-2-(1,2,3,4-tetrahydronaphthalen-1-ylamino)ethyl]benzamide]
[1]
  IC50: 50 to 500 nM
[2]
  IC50: 50 to 500 nM
[3]
  IC50: 50 to 500 nM

## O=C(CNC(=O)N1CCN(c2ccccc2)CC1)NC1CCCc2ccccc21 (stereo not drawn) [Entry 91, N-[2-oxo-2-(1,2,3,4-tetrahydronaphthalen-1-ylamino)ethyl]-4-phenylpiperazine 1-carboxamide]
[1]
  IC50: > 5000 nM
[2]
  IC50: > 5000 nM
[3]
  IC50: > 5000 nM

## O=C(CNC(=O)NCCc1ccc(-c2ccccc2)cc1)NC1CCCc2ccccc21 (stereo not drawn) [Entry 72, N˜2˜-{[(2-biphenyl-4-ylethyl)amino]carbonyl}-N-(1,2,3,4-tetrahydronaphthalen-1-yl)glycinamide]
[1]
  IC50: > 5000 nM
[2]
  IC50: > 5000 nM
[3]
  IC50: > 5000 nM
